From patent US6541978B1, “Method, system and device for producing signals from a substance biological and/or chemical activity” (priority 1998, dated 2003)
Where “and” joins values, the source holds several entries; their conditions need not be identical. Identical values can stand only once.

Legend:
[1] = test system: isolated guinea-pig heart; test: Perfused isolated guinea-pig heart (Langendorff), injections of the substances; conditions: injection of substance 10^−6M
Text: As an example of a biological control system, an d referring to FIG. 2, a test will be described below derived from that known under the test name of a perfused isolated guinea-pig heart (or Langendorff experiment) and whose process is described in the work entitled: “Methods in Immunology and Immunochemistry” published by Williams and Chase, Academic Press 1976, particularly page 68; or further in the work entitled: “L'experimentation animate en cardiologie” INSERM Médecine-Science—Coll. Flammarion—Author Bernard […]—particularly Ch. 3.1 p.81 “Organe Isolé—Coceur Isolé selon Langendorff—Montage à pression coronaire constante”; or further in the work entitled “The isolated perfused Heart according to Langendorff” H. J. Döiring, H. Dehnart—Biomesstechnik—Verlag March GmbH, D-7806 March. In FIG. 2 one recognises the diagram known from the Langendorff experiment. The equipment described in these works has been completed by a transducer in the form of a bobbin 60 of a varnished copper wire of diameter 0.5 mm, with a diameter of 110 mm, a length of 40 mm and with an impedance of 4 ohms.
The fraction collector collected the tubes making it possible to measure the debit of the guinea-pig heart at the rate of 1 tube per minute. The buffer solution crossing the heart had the following composition: CaCl 2 mM, NaHCO3 25 mM, NaCl 118 mM, MgSO4 1.2 mM, KHPO4 1.2 mM, Glucose 11 mM, Pyruvate 2 mM.

skin of a guinea-pig = test: Guinea-pig cutaneous test (Evans blue marks); assay type: in vivo; conditions: 0.1 ml ponderal solution at 10^−6M injected under the skin; single injections
Text: As an example, with reference to FIG. 4, a presentation is given below of the test known under the name of guinea-pig cutaneous test and described in chapter 11 (p.346-351) in the second edition of “Immunology” edited by Jean-Francois Bach, coll. John Wiley & Sons; or further in the 3rd edition of “The handbook of Experimental Immunology” edited by D. M. Weir, coll. Blackwell, Ch. 21 “Passive cutaneous anaphylaxis (PCA)” by W. E. Brocklehurst; or further in the work edited by Williams & Chase entitled “Methods in IMMUNOLOGY and IMMUNOCHEMISTRY”—Vol. 5—Ch. 19 “Anaphylaxis”.
The guinea-pig is used when still alive, and is given a n intravenous injection of a blue colorant (Evans blue—Sigma E 2129) which fixes on the blood albumin.
The test is carried out by injecting under the skin of the animal prepared in this way, 0.1 ml of the solution whose activity is to be controlled. Nextone measures the diameter of the blue marks appearing around the points of injection. In order to do this the skin is scanned, and then the bitmap image file is recorded. Finally the sizes of the blue marks due to the reaction are evaluated.
In the example described, a control was carried out of the presence of signals characteristic of the biological activity of the acetylcholine neuromediator (ACh; Sigma A2661) in solution in a physiological solution, by analysing the effects o n the skin of a guinea-pig: […]

## Cn1c(=O)c2c(ncn2C)n(C)c1=O [caffeine]
[1]; time 1 min
  quantity of the buffer solution recuperated in the collector tubes: 5.1 mL
[1]; time 2 min
  quantity of the buffer solution recuperated in the collector tubes: 5.0 mL
[1]; time 3 min
  quantity of the buffer solution recuperated in the collector tubes: 5.0 mL
[1]; time 4 min
  quantity of the buffer solution recuperated in the collector tubes: 4.9 mL
[1]; time 5 min
  quantity of the buffer solution recuperated in the collector tubes: 4.6 mL
[1]; time 6 min
  quantity of the buffer solution recuperated in the collector tubes: 4.2 mL
[1]; time 7 min
  quantity of the buffer solution recuperated in the collector tubes: 4.0 mL
[1]; time 8 min
  quantity of the buffer solution recuperated in the collector tubes: 4.1 mL
[1]; time 9 min
  quantity of the buffer solution recuperated in the collector tubes: 4.0 mL
[1]; time 10 min
  quantity of the buffer solution recuperated in the collector tubes: 4.2 mL
[1]; time 11 min
  quantity of the buffer solution recuperated in the collector tubes: 4.1 mL
[1]; time 12 min
  quantity of the buffer solution recuperated in the collector tubes: 4.3 mL
[1]; time 13 min
  quantity of the buffer solution recuperated in the collector tubes: 4.4 mL
[1]; time 14 min
  quantity of the buffer solution recuperated in the collector tubes: 4.5 mL
[1]; time 15 min
  quantity of the buffer solution recuperated in the collector tubes: 4.5 mL
[1]; time 20 min
  quantity of the buffer solution recuperated in the collector tubes: 4.6 mL
[1]; time 25 min
  quantity of the buffer solution recuperated in the collector tubes: 4.5 mL
[1]; time 30 min
  quantity of the buffer solution recuperated in the collector tubes: 4.5 mL

## CNc1ccc2oc(C[C@H]3O[C@@]4(CC[C@H]3C)O[C@H]([C@H](C)C(=O)c3ccc[nH]3)[C@H](C)C[C@H]4C)nc2c1C(=O)O [ionophoretic-calcium, ionophoretic-calcium A 23187]
[1]; time 1 min
  quantity of the buffer solution recuperated in the collector tubes: 5.1 mL
[1]; time 2 min
  quantity of the buffer solution recuperated in the collector tubes: 5.0 mL
[1]; time 3 min
  quantity of the buffer solution recuperated in the collector tubes: 5.2 mL
[1]; time 4 min
  quantity of the buffer solution recuperated in the collector tubes: 5.0 mL
[1]; time 5 min
  quantity of the buffer solution recuperated in the collector tubes: 4.9 mL
[1]; time 6 min
  quantity of the buffer solution recuperated in the collector tubes: 5.4 mL
[1]; time 7 min
  quantity of the buffer solution recuperated in the collector tubes: 5.6 mL
[1]; time 8 min
  quantity of the buffer solution recuperated in the collector tubes: 6.2 mL
[1]; time 9 min
  quantity of the buffer solution recuperated in the collector tubes: 6.4 mL
[1]; time 10 min
  quantity of the buffer solution recuperated in the collector tubes: 6.4 mL
[1]; time 11 min
  quantity of the buffer solution recuperated in the collector tubes: 6.2 mL
[1]; time 12 min
  quantity of the buffer solution recuperated in the collector tubes: 6.0 mL
[1]; time 13 min
  quantity of the buffer solution recuperated in the collector tubes: 6.0 mL
[1]; time 14 min
  quantity of the buffer solution recuperated in the collector tubes: 5.9 mL
[1]; time 15 min
  quantity of the buffer solution recuperated in the collector tubes: 6.0 mL
[1]; time 20 min
  quantity of the buffer solution recuperated in the collector tubes: 5.7 mL
[1]; time 25 min
  quantity of the buffer solution recuperated in the collector tubes: 5.4 mL
[1]; time 30 min
  quantity of the buffer solution recuperated in the collector tubes: 5.2 mL

## CC(=O)OCC[N+](C)(C)C [ACh, acetylcholine]
Skin of a guinea-pig
  Dia. in mm (diameter of the blue marks around the points of injection): 23 mm and 25 mm and 21 mm and 18 mm
